Literature values, collected in US9012511B2, “Nanoparticulate cinacalcet compositions” (Alkermes Pharma Ireland Limited, priority 2010, dated 2015).
Read-outs that look alike come from different tables or passages of the source.

Legend:
[1] = fasted subjects; estimated

mean tmax (fasting subjects): 6 h
mean tmax (high-fat fed subjects): 4 h
mean tmax (low-fat fed subjects): 3.5 h
difference in mean AUC∞ between high- and low-fat meals (single oral dose 90 mg): 12 (9.9-26) %
mean (90% confidence intervals) AUC[infinity] increase relative to fasting (single oral dose 90 mg, high-fat, high-caloric meal): 68 (48 to 89) %
mean (90% confidence intervals) AUC[infinity] increase relative to fasting (single oral dose 90 mg, low-fat, low-caloric meal): 50 (33 to 70) %
absolute bioavailability [1]: 20-25%
SMILES: C[C@@H](NCCCc1cccc(C(F)(F)F)c1)c1cccc2ccccc12.Cl [Cinacalcet HCl, Cinacalcet hydrochloride]
